# Reference: PubChem BioAssay AID330 (DTP/NCI, 2004)
# Values joined by “and” are separate entries in the source; they are usually repeats but may differ in a detail not shown here. Identical values can stand only once. Toxic doses and inconclusive results are not listed.
# Test system: P388 leukemia ip, CD2F1 mice, survival T/C
# Experiment: NCI In Vivo Anticancer Drug Screen. Data for tumor model P388 Leukemia (intraperitoneal) in CD2F1 (CDF1) mice
# Details: endpoint: median survival time, higher = longer survival
# Procedure, shortened: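 Mice carrying the transplanted tumor received test compound or vehicle. Survival was recorded in each group, and the value is the treated-group measurement divided by that of the vehicle-treated control group.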
# [1] = dose: 6.25 mg/kg/injection, schedule: Q01DX009 (ip), vehicle: saline
# [2] = dose: 25.0 mg/kg/injection, schedule: Q01DX009 (ip), vehicle: water
# [3] = dose: 25.0 mg/kg/injection, schedule: Q01DX009 (oral), vehicle: saline
# [4] = dose: 50.0 mg/kg/injection, schedule: Q01DX005 (ip), vehicle: saline
# [5] = dose: 50.0 mg/kg/injection, schedule: Q01DX009 (ip), vehicle: water
# [6] = dose: 50.0 mg/kg/injection, schedule: Q01DX009 (oral), vehicle: saline
# [7] = dose: 12.5 mg/kg/injection, schedule: Q01DX009 (ip), vehicle: saline with Tween-80
# [8] = dose: 25.0 mg/kg/injection, schedule: Q01DX009 (ip), vehicle: saline with Tween-80
# [9] = dose: 50.0 mg/kg/injection, schedule: Q01DX009 (ip), vehicle: saline with Tween-80
smiles,measurement,setting,value
CNC(=O)ON(C(C)=O)C(=O)NC,T/C,"dose: 3.13 mg/kg/injection, schedule: Q03HX015 (ip), vehicle: water",101 % of control and 118 % of control
same,T/C,"dose: 6.25 mg/kg/injection, schedule: Q01DX001 (iv), vehicle: saline",95 % of control
same,T/C,"dose: 6.25 mg/kg/injection, schedule: Q01DX005 (iv), vehicle: saline",100 % of control
same,T/C,[1],118 % of control
same,T/C,"dose: 6.25 mg/kg/injection, schedule: Q03HX015 (ip), vehicle: water",121 % of control and 98 % of control
same,T/C,"dose: 10.0 mg/kg/injection, schedule: Q01DX009 (ip), vehicle: saline",114 % of control and 119 % of control and 120 % of control
same,T/C,"dose: 12.5 mg/kg/injection, schedule: Q01DX001 (iv), vehicle: saline",98 % of control
same,T/C,"dose: 12.5 mg/kg/injection, schedule: Q01DX005 (ip), vehicle: saline",116 % of control
same,T/C,"dose: 12.5 mg/kg/injection, schedule: Q01DX005 (iv), vehicle: saline",102 % of control
same,T/C,"dose: 12.5 mg/kg/injection, schedule: Q01DX005 (oral), vehicle: saline",101 % of control
same,T/C,"dose: 12.5 mg/kg/injection, schedule: Q01DX009 (ip), vehicle: water",103 % of control and 120 % of control
same,T/C,"dose: 12.5 mg/kg/injection, schedule: Q01DX009 (oral), vehicle: saline",103 % of control
same,T/C,"dose: 12.5 mg/kg/injection, schedule: Q03HX015 (ip), vehicle: saline",115 % of control
same,T/C,"dose: 12.5 mg/kg/injection, schedule: Q03HX015 (ip), vehicle: water",99 % of control and 116 % of control
same,T/C,"dose: 20.0 mg/kg/injection, schedule: Q01DX009 (ip), vehicle: saline",121 % of control
same,T/C,"dose: 25.0 mg/kg/injection, schedule: Q01DX001 (ip), vehicle: saline",106 % of control
same,T/C,"dose: 25.0 mg/kg/injection, schedule: Q01DX001 (iv), vehicle: saline",100 % of control
same,T/C,"dose: 25.0 mg/kg/injection, schedule: Q01DX001 (oral), vehicle: saline",98 % of control
same,T/C,"dose: 25.0 mg/kg/injection, schedule: Q01DX005 (ip), vehicle: saline",116 % of control
same,T/C,"dose: 25.0 mg/kg/injection, schedule: Q01DX005 (iv), vehicle: saline",104 % of control
same,T/C,"dose: 25.0 mg/kg/injection, schedule: Q01DX005 (oral), vehicle: saline",104 % of control
same,T/C,[2],106 % of control
same,T/C,[3],120 % of control
same,T/C,"dose: 25.0 mg/kg/injection, schedule: Q03HX015 (ip), vehicle: water",107 % of control
same,T/C,"dose: 40.0 mg/kg/injection, schedule: Q01DX009 (ip), vehicle: saline",124 % of control
same,T/C,"dose: 50.0 mg/kg/injection, schedule: Q01DX001 (ip), vehicle: saline",111 % of control
same,T/C,"dose: 50.0 mg/kg/injection, schedule: Q01DX001 (iv), vehicle: saline",101 % of control and 102 % of control
same,T/C,"dose: 50.0 mg/kg/injection, schedule: Q01DX001 (oral), vehicle: saline",97 % of control
same,T/C,[4],114 % of control
same,T/C,"dose: 50.0 mg/kg/injection, schedule: Q01DX005 (iv), vehicle: saline",106 % of control and 108 % of control
same,T/C,"dose: 50.0 mg/kg/injection, schedule: Q01DX005 (oral), vehicle: saline",110 % of control
same,T/C,[5],107 % of control
same,T/C,[6],115 % of control
same,T/C,"dose: 50.0 mg/kg/injection, schedule: Q03HX015 (ip), vehicle: water",112 % of control
same,T/C,"dose: 80.0 mg/kg/injection, schedule: Q01DX009 (ip), vehicle: saline",121 % of control
same,T/C,"dose: 100.0 mg/kg/injection, schedule: Q01DX001 (ip), vehicle: saline",105 % of control
same,T/C,"dose: 100.0 mg/kg/injection, schedule: Q01DX001 (iv), vehicle: saline",99 % of control and 101 % of control
same,T/C,"dose: 100.0 mg/kg/injection, schedule: Q01DX001 (oral), vehicle: saline",103 % of control
same,T/C,"dose: 100.0 mg/kg/injection, schedule: Q01DX005 (iv), vehicle: saline",114 % of control and 115 % of control
same,T/C,"dose: 100.0 mg/kg/injection, schedule: Q01DX005 (oral), vehicle: saline",120 % of control
same,T/C,"dose: 100.0 mg/kg/injection, schedule: Q01DX009 (ip), vehicle: water",121 % of control
same,T/C,"dose: 200.0 mg/kg/injection, schedule: Q01DX001 (iv), vehicle: saline",107 % of control
same,T/C,"dose: 200.0 mg/kg/injection, schedule: Q01DX001 (oral), vehicle: saline",103 % of control
same,T/C,"dose: 200.0 mg/kg/injection, schedule: Q01DX005 (oral), vehicle: saline",116 % of control
same,T/C,"dose: 200.0 mg/kg/injection, schedule: Q01DX009 (ip), vehicle: water",123 % of control
same,T/C,"dose: 400.0 mg/kg/injection, schedule: Q01DX001 (oral), vehicle: saline",116 % of control
O=C(N/C(=C\c1ccccc1)C(=O)N1CCNCC1)c1ccccc1,T/C,"dose: 50.0 mg/kg/injection, schedule: Q01DX005 (ip), vehicle: saline with Tween-80",93 % of control
same,T/C,"dose: 100.0 mg/kg/injection, schedule: Q01DX005 (ip), vehicle: saline with Tween-80",89 % of control
same,T/C,"dose: 200.0 mg/kg/injection, schedule: Q01DX005 (ip), vehicle: saline with Tween-80",87 % of control
N#Cc1ccc(N(O)C(=O)c2ccccc2)cc1,T/C,[7],99 % of control
same,T/C,[8],100 % of control
same,T/C,[9],99 % of control and 100 % of control
COc1cccc2c1C(=O)c1c(O)c3c(c(O)c1C2=O)C[C@@](O)(/C(CO)=N/NC(=O)c1ccc(Cl)c(Cl)c1)C[C@@H]3OC1CC(N)C(O)C(C)O1 (stereo partly drawn),T/C,"dose: 0.12 mg/kg/injection, schedule: Q01DX009 (ip), vehicle: water",116 % of control
same,T/C,"dose: 1.0 mg/kg/injection, schedule: Q01DX009 (ip), vehicle: water",153 % of control and 172 % of control
same,T/C,"dose: 1.56 mg/kg/injection, schedule: Q04DX003 (ip), vehicle: water",108 % of control
same,T/C,"dose: 2.0 mg/kg/injection, schedule: Q01DX009 (ip), vehicle: water",154 % of control and 176 % of control
same,T/C,"dose: 2.0 mg/kg/injection, schedule: Q04DX003 (ip), vehicle: saline",99 % of control and 105 % of control and 118 % of control
same,T/C,"dose: 3.13 mg/kg/injection, schedule: Q04DX003 (ip), vehicle: water",104 % of control and 121 % of control
same,T/C,"dose: 4.0 mg/kg/injection, schedule: Q01DX009 (ip), vehicle: water",202 % of control and 205 % of control
same,T/C,"dose: 4.0 mg/kg/injection, schedule: Q04DX003 (ip), vehicle: saline",108 % of control and 116 % of control
same,T/C,"dose: 6.25 mg/kg/injection, schedule: Q04DX003 (ip), vehicle: water",155 % of control
same,T/C,"dose: 8.0 mg/kg/injection, schedule: Q01DX009 (ip), vehicle: water",109 % of control and 241 % of control
same,T/C,"dose: 25.0 mg/kg/injection, schedule: Q04DX003 (ip), vehicle: water",166 % of control and 167 % of control
same,T/C,"dose: 100.0 mg/kg/injection, schedule: Q04DX003 (ip), vehicle: water",124 % of control
same,T/C,"dose: 512.0 mg/kg/injection, schedule: Q04DX003 (ip), vehicle: saline",99 % of control
same,T/C,"dose: 1024.0 mg/kg/injection, schedule: Q04DX003 (ip), vehicle: saline",90 % of control
NC(=O)c1n[nH][nH]c1=O,T/C,[4],115 % of control
same,T/C,"dose: 100.0 mg/kg/injection, schedule: Q01DX005 (ip), vehicle: saline",105 % of control
same,T/C,"dose: 200.0 mg/kg/injection, schedule: Q01DX005 (ip), vehicle: saline",115 % of control
COC(=O)Nc1nc2ccc(C3(c4ccc(F)cc4)OCCO3)cc2[nH]1,T/C,[3],103 % of control
same,T/C,[6],119 % of control
same,T/C,"dose: 50.0 mg/kg/injection, schedule: Q04DX003 (ip), vehicle: saline",168 % of control
same,T/C,"dose: 60.0 mg/kg/injection, schedule: Q04DX003 (ip), vehicle: saline",155 % of control and 192 % of control
same,T/C,"dose: 70.0 mg/kg/injection, schedule: Q04DX003 (ip), vehicle: saline",208 % of control
CC[N+]1(C)CCCCC1,T/C,[1],107 % of control
same,T/C,"dose: 12.5 mg/kg/injection, schedule: Q01DX009 (ip), vehicle: saline",103 % of control
same,T/C,"dose: 25.0 mg/kg/injection, schedule: Q01DX009 (ip), vehicle: saline",97 % of control
same,T/C,"dose: 50.0 mg/kg/injection, schedule: Q01DX009 (ip), vehicle: saline",97 % of control
Nc1nn(-c2cccc(C(F)(F)F)c2)c2cccc[n+]12,T/C,[7],100 % of control
same,T/C,[8],105 % of control
same,T/C,[2],111 % of control
same,T/C,[9],100 % of control
same,T/C,[5],106 % of control
